Laboratory results reported in paper PMC9740559, “Molecular and Pharmacological Characterization of β-Adrenergic-like Octopamine Receptors in the Endoparasitoid Cotesia chilonis (Hymenoptera: Braconidae)” (International Journal of Molecular Sciences, 2022).

How the values were obtained:
CcOctβ2R [1] = tested on: T1, CcOctβ2R; settings: read-out: CcOctβ2R / IC50; antagonist; non-saturating OA (30 nM); 100 μM IBMX; 25 °C
T1 construct: gene Octβ2R
Text: inhibition of OA-induced cAMP in stable CHO-K1 cells (cAMP immunoassay) on CcOctβ2R

CcOctβ1R [2] = tested on: T2, CcOctβ1R; settings: read-out: CcOctβ1R / IC50; antagonist; non-saturating OA (100 nM); 100 μM IBMX; 25 °C
T2 construct: gene Octβ1R
Text: inhibition of OA-induced cAMP in stable CHO-K1 cells (cAMP immunoassay) on CcOctβ1R

CcOctβ3R [3] = tested on: T3, CcOctβ3R; settings: read-out: CcOctβ3R / IC50; antagonist; non-saturating OA (300 nM); 100 μM IBMX; 25 °C
T3 construct: gene Octβ3R
Text: inhibition of OA-induced cAMP in stable CHO-K1 cells (cAMP immunoassay) on CcOctβ3R

CcOctβ3R [4] = tested on: T4, CcOctβ3R; assay: cAMP production in stable CHO-K1 cells (cAMP immunoassay); format: cell-based, Cotesia chilonis; settings: agonist; 100 μM IBMX; 25 °C
T4 construct: gene Octβ3R; full-length ORF, 358 residues; pcDNA3.0 vector with hemagglutinin A tag

CcOctβ1R [5] = tested on: T5, CcOctβ1R; assay: as above; format: cell-based, Cotesia chilonis; settings: agonist; 100 μM IBMX; 25 °C
T5 construct: gene Octβ1R; full-length ORF, 417 residues; pcDNA3.0 vector with hemagglutinin A tag
Text: cAMP production in stable CHO-K1 cells (cAMP immunoassay) on CcOctβ1R

CcOctβ2R [6] = tested on: T6, CcOctβ2R; assay: as above; format: cell-based, Cotesia chilonis; settings: agonist; 100 μM IBMX; 25 °C
T6 construct: gene Octβ2R; full-length ORF, 435 residues; pcDNA3.0 vector with hemagglutinin A tag
Text: cAMP production in stable CHO-K1 cells (cAMP immunoassay) on CcOctβ2R

SMILES	IC50 (CcOctβ2R [1]) [nM]	IC50 (CcOctβ1R [2]) [nM]	IC50 (CcOctβ3R [3]) [nM]	EC50 (CcOctβ3R [4]) [nM]	EC50 (CcOctβ1R [5]) [nM]	EC50 (CcOctβ2R [6]) [nM]
NC1=NCC2c3ccccc3Cc3ccccc3N12 (centres unmarked) [Epinastine]	14.4	37.6	7.34			
NC[C@H](O)c1ccc(O)cc1 [OA]				33.6	39	6.69
CN=CNc1ccc(C)cc1C [DPMF, N^2-(2,4-dimethylphenyl)-N^1-methyformamidine]				4.35	9.25	2.37
Cc1ccc(/N=C/N(C)/C=N/c2ccc(C)cc2C)c(C)c1 [Amitraz]					16.5	3.27
c1ccc2c(CC3=NCCN3)cccc2c1 [Naphazoline]				5.06	0.231	0.0157
